In PubChem BioAssay (NCI) one finds TGI and GI50 data, which are given here for nine compounds.

Among the test systems are U251 CNS; HCT-116 colon; SK-MEL-5 melanoma; NCI-H522 lung; NCI/ADR-RES ovarian; CAKI-1 renal; MDA-MB-231 breast; OVCAR-4 ovarian; SF-539 CNS; DU-145 prostate.
Common to all, as to experiment: NCI-60 cell line screen, 48 h

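Exposure lasted 48 hours, with cells grown in 96-well plates and compounds tested at five concentrations. GI50: concentration for 50% inhibition of growth. Definition used: TGI = concentration required for complete inhibition of growth.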

Take `Cc1ccc(N=Nc2c(O)c(C(=O)O)cc3ccccc23)cc1C`: the TGI in the experiment with U251 CNS, in the experiment with HCT-116 colon, in the experiment with SK-MEL-5 melanoma, with NCI-H522 lung, in the experiment on NCI/ADR-RES ovarian and with CAKI-1 renal was over 100 µM in each case. Besides, the TGI with MDA-MB-231 breast, in the experiment on OVCAR-4 ovarian and in the experiment on SF-539 CNS was over 100 µM each time.
As to `CCCCCCCCCCC(C(=O)O)C1(C(=O)O)CCC(=O)O1` (centres undefined), the TGI in the experiment on DU-145 prostate, in the experiment on U251 CNS, in the experiment on HCT-116 colon, in the experiment with NCI-H522 lung, with NCI/ADR-RES ovarian and with CAKI-1 renal was over 100 µM throughout. Further, the TGI in the experiment with MDA-MB-231 breast and in the experiment on OVCAR-4 ovarian was over 100 µM in each case.
For `COc1ccc2c(c1)/C(=C\c1c(C)nc3sccn13)C(=O)N2`, the GI50 in the experiment with DU-145 prostate is 0.55 µM; in the experiment with SK-MEL-5 melanoma, under 0.0474 µM; in the experiment with NCI-H522 lung, under 0.01 µM; with CAKI-1 renal, under 0.0485 µM; in the experiment on MDA-MB-231 breast, under 0.01 µM; in the experiment with OVCAR-4 ovarian, 4.01 µM. Besides, the TGI was over 100 µM in the experiment with DU-145 prostate; over 100 µM in the experiment with U251 CNS; over 31.8 µM with HCT-116 colon; 3.39 µM in the experiment with SK-MEL-5 melanoma; over 42.2 µM with NCI/ADR-RES ovarian; over 100 µM in the experiment with CAKI-1 renal. The TGI was 26.2 µM in the experiment with MDA-MB-231 breast and over 100 µM in the experiment on OVCAR-4 ovarian.
As to `O=C(/C=C/c1ccccc1)c1cc(Br)ccc1O`, the TGI with DU-145 prostate was determined as 28.4 µM; in the experiment with U251 CNS it was 29.9 µM; with HCT-116 colon it was 32.3 µM; in the experiment on SK-MEL-5 melanoma it was 34.6 µM; in the experiment on NCI-H522 lung, 28.4 µM; in the experiment on NCI/ADR-RES ovarian, 34.9 µM. In addition, the figures for the TGI with CAKI-1 renal, in the experiment with MDA-MB-231 breast and with OVCAR-4 ovarian were 31.1 µM, 42.5 µM and 30.3 µM, respectively.
As to `O=C1/C(=C\c2c[nH]c3ccccc23)c2ccccc2N1c1c(Cl)cccc1Cl`, the GI50 is 1.74 µM in the experiment on DU-145 prostate; 1.58 µM in the experiment with U251 CNS; 1.3 µM in the experiment with HCT-116 colon; 1.55 µM in the experiment with SK-MEL-5 melanoma; 1.81 µM with NCI-H522 lung; 1.43 µM in the experiment on CAKI-1 renal. The results for the GI50 in the experiment with MDA-MB-231 breast, with OVCAR-4 ovarian and in the experiment with SF-539 CNS were 1.59 µM, 2.33 µM and 1.59 µM, respectively. Moreover, the TGI stood at 3.28 µM with DU-145 prostate; 3.68 µM with U251 CNS; 2.56 µM in the experiment with HCT-116 colon; 2.92 µM in the experiment on SK-MEL-5 melanoma; 3.56 µM with NCI-H522 lung; 4.53 µM in the experiment on CAKI-1 renal. In addition, the TGI in the experiment on MDA-MB-231 breast worked out at 3.21 µM; in the experiment on OVCAR-4 ovarian, 6.44 µM; in the experiment with SF-539 CNS it was 3.01 µM.
With `CCCCCCCCN=C(N)c1ccc(N2CCN(c3ccc(C(N)=NCCCCCCCC)cc3)CC2)cc1`, the GI50 is 2.42 µM with DU-145 prostate; 1.45 µM with U251 CNS; 1.64 µM in the experiment on HCT-116 colon; 1.05 µM with SK-MEL-5 melanoma; 2.27 µM with NCI-H522 lung; over 50 µM in the experiment on NCI/ADR-RES ovarian. Moreover, the GI50 was 1.28 µM in the experiment on CAKI-1 renal, 3.37 µM with MDA-MB-231 breast and 2.35 µM in the experiment with OVCAR-4 ovarian. The TGI is 18 µM with DU-145 prostate; 6.33 µM with U251 CNS; 5.99 µM with HCT-116 colon; 2.45 µM with SK-MEL-5 melanoma; over 50 µM with NCI-H522 lung; over 50 µM in the experiment on NCI/ADR-RES ovarian. The TGI was 3.68 µM in the experiment on CAKI-1 renal, over 50 µM in the experiment on MDA-MB-231 breast and 14.9 µM in the experiment on OVCAR-4 ovarian.
On to `COc1ccc(-c2n/c(=C\c3c(O)[nH]c4ccc(OC)cc34)cc3c2=Nc2ccccc2-3)cc1`, for which the GI50 in the experiment with HCT-116 colon is 1.85 µM; in the experiment on SK-MEL-5 melanoma, 1.53 µM; in the experiment with CAKI-1 renal, 8.32 µM; with MDA-MB-231 breast it was 1.73 µM; with SF-539 CNS, 1.85 µM. In addition, the TGI came out at 3.33 µM with HCT-116 colon; 2.91 µM with SK-MEL-5 melanoma; 45 µM in the experiment on CAKI-1 renal; 4.27 µM in the experiment with MDA-MB-231 breast; 3.4 µM in the experiment with SF-539 CNS.
For `CCCCC(CC)CN=C(N)NC(N)=NCCCCCCN=C(N)NC(N)=NCC(CC)CCCC` (centres undefined), the GI50 was 3.26 µM with DU-145 prostate; 10.4 µM in the experiment with NCI/ADR-RES ovarian; 2.93 µM in the experiment with CAKI-1 renal; 1.85 µM in the experiment with MDA-MB-231 breast; 1.9 µM with OVCAR-4 ovarian. Also, the TGI in the experiment with DU-145 prostate was 11.4 µM; in the experiment on NCI/ADR-RES ovarian, 33.6 µM; in the experiment with CAKI-1 renal it was 10.3 µM; with MDA-MB-231 breast it was 3.65 µM; with OVCAR-4 ovarian, 4.85 µM.
`COc1cc2c(c(OC)c1)C1c3ccccc3NC(=O)N1CC2` (centres undefined): the GI50 in the experiment with DU-145 prostate is 4.84 µM; with U251 CNS, 4.38 µM; in the experiment with HCT-116 colon, 3.69 µM; in the experiment on SK-MEL-5 melanoma it was 4.01 µM; in the experiment with NCI-H522 lung it was 2.97 µM; in the experiment on CAKI-1 renal it was 4.62 µM. Besides, the GI50 in the experiment with MDA-MB-231 breast is 3.98 µM; in the experiment with OVCAR-4 ovarian it was 8.24 µM; in the experiment on SF-539 CNS, 1.7 µM. The TGI was over 100 µM with DU-145 prostate; over 100 µM in the experiment with U251 CNS; over 100 µM with HCT-116 colon; 15.3 µM with SK-MEL-5 melanoma; 11.8 µM in the experiment with NCI-H522 lung; over 100 µM with CAKI-1 renal. Besides, the TGI is over 100 µM in the experiment with MDA-MB-231 breast, over 100 µM in the experiment on OVCAR-4 ovarian and 7.26 µM in the experiment on SF-539 CNS.
